Like-named read-outs stand apart in the source and are kept apart here.
Columns and labels:
[1] = Study A35-002: single-dose PK of AMX0035, fasted vs high-fat meal, two-period cross-over; format: in vivo, human; conditions: for half-life: both sexes, human, plasma
Protocol: The pharmacokinetics (PK) of PB and TURSO after a single dose administration of AMX0035 were determined in adult (40 to 55 years of age) male and female normal healthy participants. Fourteen participants received a single dose of AMX0035 on two occasions (with a washout between periods of no less than 4 days), after fasting or after a high-fat standardized meal in a balanced, two-period, cross-over design (Study A35-002).
Clearance is rapid, and the terminal half-life (t1/2) is less than 1 hour. […] The primary metabolite of PB is phenylacetate (PAA), which occurs endogenously as a phenylalanine metabolite. […] Many participants had two or three peaks of absorption, which is consistent with bile acid storage and release upon a meal/snack. […] The primary metabolites of TURSO include ursodeoxycholic acid (UDCA) and glycoursodeoxycholic acid (GUDCA). All three are naturally occurring hydrophilic bile acids and subject to extensive enterohepatic recirculation.

[2] = test system: G93A SOD1 mouse model of ALS; conditions: cited from earlier work
[3] = in vivo; cited from earlier work
[4] = single oral dose of AMX0035, healthy adults

half-life ([1]; oral, fasting, read-out: terminal t1/2 (average) (converted))	terminal t1/2 (average) ([1]; fed)	absorption of TURSO ([1]; given with or without food)	Cmax in the presence of a high-fat meal ([1]; high-fat meal vs fasted)	increase in exposure as AUC0-last in the presence of a high-fat meal ([1]; high-fat meal vs fasted)	SMILES	half-life ([1]; oral, under both the fed and fasted condition, read-out: terminal half-life (converted))	half-life ([1]; single oral dose of AMX0035, healthy adults, read-out: terminal half-life (t1/2))	absorption in the presence of a high-fat meal ([1]; high-fat meal vs fasted)	overall exposure in the presence of a high-fat meal ([1]; high-fat meal vs fasted)	absorption of PB [1, 4]	clearance [1, 4]	survival in in vivo models [2]	most common adverse reactions reported (≥1%) [3]
–	–	–	–	–	O=C(O)CCCc1ccccc1 [PB, sodium phenylbutyrate]	~0.5 h	< 1 h	significantly slower	lower	rapidly absorbed	rapid	increase survival	–
4.8 h	3.6 h	slowly absorbed	similar	less than 1 fold	C[C@H](CCC(=O)NCCS(=O)(=O)O)[C@H]1CC[C@H]2[C@@H]3[C@@H](O)C[C@@H]4C[C@H](O)CC[C@]4(C)[C@H]3CC[C@]12C [TURSO, taurursodiol]	–	–	–	–	–	–	–	abdominal discomfort, abdominal pain, diarrhea, nausea, pruritus, and rash
